This is an account of results in patent publication US7981939B2, “Application of 2-bromide-isovanillin for the manufacture of a medicament for anti-cancer or/and radiation/chemotherapy sensitization” (Institute of Radiation Medicine, Academy of Military …, priority 2005, dated 2011).

Test [1] deals with human cervical cancer cell line HeLa. In words: Clonogenic assay, 6 days of continuous action, HeLa. In kind it is cell-based. On the procedure: Human cervical cancer cell line HeLa, human liver cancer cell line HepG2/7221/7402, human ovarian cancer cell line HOC8/A2780, human glioma cell line BT325, lung cancer cell line A549, brain metastatic lung cancer cell line BT72 and normal human hepatic cell line LO2 were all grown in DMEM liquid medium supplemented with 10% newborn calf serum. Human leukemia cell line Jurkat was grown in 1640 medium supplemented with 10% newborn calf serum. The above cell lines were cultured in a CO2 incubator at 5% CO2 at 37° C.
By way of example, human cervical cancer cell line HeLa, lung cancer cell line A549, and ovarian cancer cell lines A2780 and HOC8 were used to determine the killing of cancer cells by 2-bromo-isovanillin for 6 days. Specifically, four groups were formed according to the type of the cancer cells. The cancer cells were diluted as appropriate, and were respectively plated into Petri dishes with a diameter of […], the amount of the cells adjusted depending on the concentration of 2-bromo-isovanillin to be added. Once adherence was achieved, each cell type received dosages of 0, 5, 10, 15, 20, 25, 30 and 35 μmol/L in triplicates. After 6 days of continuous action, the medium was replaced by a drug-free DMEM liquid medium. […] Then the cell clones were counted. The experimental data were expressed as the mean of 2-4 experiments and were plotted as a growth curve of cancer cells.

For test [2] the test system is unchanged. The experiment in a line: Radiosensitizing activity with 2 Gy Co-60 γ radiation, HeLa, MTT assay. In kind it is cell-based. As to the method: By way of example, human cervical cancer cell line HeLa was used to determine the radiosensitizing activity of 2-bromo-isovanillin.
Specifically, human cervical cancer cells HeLa were divided into six groups, diluted as appropriate, and plated into Petri dishes with a diameter of […]. The amount of cells plated in each Petri dish was 300/500 for 0 Gy group (without Co-60 γ radiation), or 400/800 for 2 Gy group. Once adherence was achieved, three groups were treated with 20 μmol/L 2-bromo-isovanillin (BVAN3208) for 0, 4 and 18 hrs, respectively and then irradiated with Co-60 γ ray at 2 Gy, followed by two weeks under conventional culturing conditions. As to the other three groups, one group was treated with 20 μmol/L 2-bromo-isovanillin (BVAN3208) for 72 hrs and then cultured for two weeks under conventional conditions, one group received irradiation with Co-60 γ ray at 2 Gy and then was cultured for two weeks under conventional conditions, and the remaining group as control received no treatment at all and was cultured for two weeks under conventional conditions. 48 hrs after irradiation with Co-60 γ ray, using MTT assay, the optical density (OD) values at 490 nm were measured and recorded, wherein the magnitude of OD value is indicative of cell number, i.e., cell proliferation. The results are shown in FIG. 5, wherein C represents the control group, R(2 Gy) represents the group treated with Co-60 γ ray alone, BVAN3208 represents the group treated with 20 μmol/L 2-bromo-isovanillin alone, and BVAN3208/0 h R, BVAN3208/4 h R and BVAN3208/18 h R respectively represent the groups treated with 20 μmol/L 2-bromo-isovanillin for 0, 4, 18 hrs before irradiation with Co-60 γ ray. The survival rates of the cancer cells treated with 2 Gy Co-60 γ ray radiation or 20 μmol/L 2-bromo-isovanillin for 72 hrs were 76% and 70%, respectively.

With `COc1ccc(C=O)c(Br)c1O` [2-bromo-isovanillin, 2-bromo-3-hydroxy-4-methoxybenzaldehyde], the survival rate entry in test [1] (20 μmol/L) is “lower than 10%”; in test [2] (20 μmol/L for 72 hrs alone, no radiation) it was 70%. For the same compound, the proliferation result in test [1] (30 μmol/L) is “completely inhibited”. Further, the cell survival rate result in test [2] (20 μmol/L, 2 Gy radiation 4 hrs after administration) is reported as “about 51%”; in test [2] (20 μmol/L, 2 Gy radiation 18 hrs after administration) it was roughly 21%; in test [2] (20 μmol/L, 2 Gy radiation immediately (0 h) after administration), “about 51%”. The sensitization ratio in test [2] (20 μmol/L, pretreatment 18 hrs prior to 2 Gy radiation) was determined as 3.32.
